Assays:
GPR3 = molecular target: T1, GPR3 (Homo sapiens, UniProt P46089); assay: GPR3 antagonist functional cAMP assay (LANCE Ultra cAMP TR-FRET, CHO cells stably expressing GPR3); type: cell-based
T1 construct: expressed in transfected cells; host or cells: CHO cells
Outline: (§1)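 We measure cAMP by TR-FRET (665 nm) in cells held in glucose-containing Krebs-Ringer buffer with BSA and a PDE inhibitor, after a 45 min, 37 °C compound incubation. IC50s derive from a four-parameter logistic fit.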

GPR6 = molecular target: T2, GPR6 (Homo sapiens, UniProt P46095); assay: GPR6 antagonist functional cAMP assay (LANCE Ultra cAMP TR-FRET, CHO cells stably expressing GPR6); type: cell-based
T2 construct: expressed in transfected cells; host or cells: CHO cells
T2 sequence (P46095 whole entry): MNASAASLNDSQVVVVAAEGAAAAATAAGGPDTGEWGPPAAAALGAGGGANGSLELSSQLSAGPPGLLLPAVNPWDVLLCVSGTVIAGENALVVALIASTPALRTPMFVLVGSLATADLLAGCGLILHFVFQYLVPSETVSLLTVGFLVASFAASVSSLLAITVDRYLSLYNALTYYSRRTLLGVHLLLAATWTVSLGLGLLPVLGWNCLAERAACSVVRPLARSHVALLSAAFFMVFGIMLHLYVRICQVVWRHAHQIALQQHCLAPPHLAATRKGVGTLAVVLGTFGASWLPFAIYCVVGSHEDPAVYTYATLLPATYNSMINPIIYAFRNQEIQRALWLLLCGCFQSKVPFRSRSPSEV
Outline: as §1

[1] = procedure as described in Example 24

T1 sequence (P46089 whole entry, species assumed): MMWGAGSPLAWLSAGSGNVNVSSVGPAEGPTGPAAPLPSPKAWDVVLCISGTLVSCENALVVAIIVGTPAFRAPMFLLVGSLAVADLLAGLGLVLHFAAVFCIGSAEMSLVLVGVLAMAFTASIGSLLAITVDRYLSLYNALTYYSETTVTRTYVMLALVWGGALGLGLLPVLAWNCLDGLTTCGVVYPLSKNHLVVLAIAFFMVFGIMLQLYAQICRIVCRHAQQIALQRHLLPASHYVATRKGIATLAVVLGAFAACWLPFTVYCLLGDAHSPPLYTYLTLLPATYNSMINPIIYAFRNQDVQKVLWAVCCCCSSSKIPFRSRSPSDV

SMILES: CC(=O)N1CCc2nc(N3CCC(Oc4ccc(F)cc4F)CC3)c(-c3cccc(=O)[nH]3)nc2C1 [Compound 33, 6-(6-acetyl-2-(4-(2,4-difluorophenoxy)piperidin-1-yl)-5,6,7,8-tetrahydropyrido[3,4-b]pyrazin-3-yl)pyridin-2(1H)-one]
- IC50 (GPR3; [1]): 1000 to 30000 nM
- IC50 (GPR6; [1]): 100 to 1000 nM

SMILES: CC(=O)N1CCc2nc(N3CCC(Oc4ccc(F)cc4F)CC3)c(-c3cncnc3)nc2C1 [Compound 34, 1-{2-[4-(2,4-difluorophenoxy)piperidin-1-yl]-3-(pyrimidin-5-yl)-5H,6H,7H,8H-pyrido [3,4-b]pyrazin-6-yl}ethan-1-one]
- IC50 (GPR3; [1]): 1000 to 30000 nM
- IC50 (GPR6; [1]): 1000 to 30000 nM

SMILES: Fc1ccc(NC2CCN(c3nc4ccncc4nc3-c3cn[nH]c3)CC2)c(F)c1 [Compound 35, 1-(3-(1H-pyrazol-4-yl)pyrido[3,4-b]pyrazin-2-yl)-N-(2,4-difluorophenyl)piperidin-4-amine]
- IC50 (GPR3; [1]): 1000 to 30000 nM
- IC50 (GPR6; [1]): 1000 to 30000 nM

SMILES: CC(=O)N1CCc2nc(N3CCC(Oc4ccc(F)cc4F)CC3)c(-c3cccc(=O)n3C)nc2C1 [Compound 36, 6-{6-acetyl-2-[4-(2,4-difluorophenoxy)piperidin-1-yl]-5H,6H,7H,8H-pyrido[3,4-b]pyrazin-3-yl}-1-methyl-1,2-dihydropyridin-2-one]
- IC50 (GPR3; [1]): 100 to 1000 nM
- IC50 (GPR6; [1]): 1000 to 30000 nM

SMILES: CC(=O)N1CCc2nc(N3CCC(Oc4ccc(F)cc4F)CC3)c(-c3ncccn3)nc2C1 [Compound 37, 1-{2-[4-(2,4-difluorophenoxy)piperidin-1-yl]-3-(pyrimidin-2-yl)-5H,6H,7H,8H-pyrido[3,4-b]pyrazin-6-yl}ethan-1-one]
- IC50 (GPR3; [1]): 100 to 1000 nM
- IC50 (GPR6; [1]): 1000 to 30000 nM

SMILES: COc1cncc(-c2nc3c(nc2N2CCC(Oc4ccc(F)cc4F)CC2)CCN(C(C)=O)C3)c1 [Compound 38, 1-{2-[4-(2,4-difluorophenoxy)piperidin-1-yl]-3-(5-methoxypyridin-3-yl)-5H,6H,7H,8H-pyrido[3,4-b]pyrazin-6-yl}ethan-1-one]
- IC50 (GPR3; [1]): 1000 to 30000 nM
- IC50 (GPR6; [1]): 100 to 1000 nM

SMILES: CC(=O)N1CCc2nc(N3CCC(Oc4ccc(F)cc4F)CC3)c(-c3cccc(OC(C)C)n3)nc2C1 [Compound 39, 1-{2-[4-(2,4-difluorophenoxy)piperidin-1-yl]-3-[6-(propan-2-yloxy)pyridin-2-yl]-5H,6H,7H,8H-pyrido[3,4-b]pyrazin-6-yl}ethan-1-one]
- IC50 (GPR3; [1]): 100 to 1000 nM
- IC50 (GPR6; [1]): 1000 to 30000 nM

SMILES: CC(=O)N1CCc2nc(N3CCC(Oc4ccc(F)cc4F)CC3)c(-c3ncc[nH]3)nc2C1 [Compound 40, 1-(2-(4-(2,4-difluorophenoxy)piperidin-1-yl)-3-(1H-imidazol-2-yl)-7,8-dihydropyrido[3,4-b]pyrazin-6(5H)-yl)ethan-1-one]
- IC50 (GPR3; [1]): 1000 to 30000 nM
- IC50 (GPR6; [1]): 1000 to 30000 nM

SMILES: Fc1ccc(OC2CCN(c3nc4ccncc4nc3-c3ncc[nH]3)CC2)c(F)c1 [Compound 41, 4-(2,4-difluorophenoxy)-1-[3-(1H-imidazol-2-yl)pyrido[3,4-b]pyrazin-2-yl]piperidine]
- IC50 (GPR3; [1]): 1000 to 30000 nM
- IC50 (GPR6; [1]): 1000 to 30000 nM

SMILES: Fc1ccc(Cl)cc1CN1CCN(c2nc3cnccc3nc2-c2ncc[nH]2)CC1 [Compound 42]
- IC50 (GPR3; [1]): 100 to 1000 nM
- IC50 (GPR6; [1]): 1000 to 30000 nM

SMILES: CC(=O)N1CCc2nc(N3CCC(Oc4ccc(F)cc4F)CC3)c(-c3cn[nH]c3C)nc2C1 [Compound 43, 1-{2-[4-(2,4-difluorophenoxy)piperidin-1-yl]-3-(5-methyl-1H-pyrazol-4-yl)-5H,6H,7H,8H-pyrido[3,4-b]pyrazin-6-yl}ethan-1-one]
- IC50 (GPR3; [1]): 1000 to 30000 nM
- IC50 (GPR6; [1]): 100 to 1000 nM

SMILES: CC(=O)N1CCc2nc(N3CCC(Oc4ccc(F)cc4F)CC3)c(-c3cnn(C)c3)nc2C1 [Compound 44, 1-{2-[4-(2,4-difluorophenoxy)piperidin-1-yl]-3-(1-methyl-1H-pyrazol-4-yl)-5H,6H,7H,8H-pyrido[3,4-b]pyrazin-6-yl}ethan-1-one]
- IC50 (GPR3; [1]): 1000 to 30000 nM
- IC50 (GPR6; [1]): 100 to 1000 nM

SMILES: CC(=O)N1CCc2nc(N3CCC(Oc4ccc(F)cc4F)CC3)c(-c3cc[nH]c3)nc2C1 [Compound 46, 1-{2-[4-(2,4-difluorophenoxy)piperidin-1-yl]-3-(1H-pyrrol-3-yl)-5H,6H,7H,8H-pyrido[3,4-b]pyrazin-6-yl}ethan-1-one]
- IC50 (GPR3; [1]): 1000 to 30000 nM
- IC50 (GPR6; [1]): 100 to 1000 nM

SMILES: CC(=O)N1CCc2nc(N3CCC(Oc4ccc(F)cc4F)CC3)c(-c3c(C)nn(C4CCCCO4)c3C)nc2C1 (centres unmarked) [Compound 47, 1-{2-[4-(2,4-difluorophenoxy)piperidin-1-yl]-3-[3,5-dimethyl-1-(oxan-2-yl)-1H-pyrazol-4-yl]-5H,6H,7H,8H-pyrido[3,4-b]pyrazin-6-yl}ethan-1-one]
- IC50 (GPR3; [1]): 1000 to 30000 nM
- IC50 (GPR6; [1]): 1000 to 30000 nM

SMILES: CC(=O)N1CCc2nc(N3CCC(Oc4ccc(F)cc4F)CC3)c(-c3cccc(N(C)C)n3)nc2C1 [Compound 48, 1-{2-[4-(2,4-difluorophenoxy)piperidin-1-yl]-3-[6-(dimethylamino)pyridin-2-yl]-5H,6H,7H,8H-pyrido[3,4-b]pyrazin-6-yl}ethan-1-one]
- IC50 (GPR3; [1]): 1000 to 30000 nM
- IC50 (GPR6; [1]): 1000 to 30000 nM

SMILES: CC(=O)N1CCc2nc(N3CCC(Oc4ccc(F)cc4F)CC3)c(-c3cccc(C(F)(F)F)n3)nc2C1 [Compound 50, 1-{2-[4-(2,4-difluorophenoxy)piperidin-1-yl]-3-[6-(trifluoromethyl)pyridin-2-yl]-5H,6H,7H,8H-pyrido[3,4-b]pyrazin-6-yl}ethan-1-one]
- IC50 (GPR3; [1]): 1000 to 30000 nM
- IC50 (GPR6; [1]): 100 to 1000 nM

SMILES: CC(=O)N1CCc2nc(N3CCC(Oc4ccc(F)cc4F)CC3)c(-c3ccc(=O)[nH]c3)nc2C1 [Compound 51, 5-{6-acetyl-2-[4-(2,4-difluorophenoxy)piperidin-1-yl]-5H,6H,7H,8H-pyrido[3,4-b]pyrazin-3-yl}-1,2-dihydropyridin-2-one]
- IC50 (GPR3; [1]): 1000 to 30000 nM
- IC50 (GPR6; [1]): 100 to 1000 nM

SMILES: Fc1ccc(CN2CCN(c3nc4ccncc4nc3-c3cn[nH]c3)CC2)c(F)c1 [Compound 52, 1-[(2,4-difluorophenyl)methyl]-4-[3-(1H-pyrazol-4-yl)pyrido[3,4-b]pyrazin-2-yl]piperazine]
- IC50 (GPR3; [1]): 1000 to 30000 nM
- IC50 (GPR6; [1]): 100 to 1000 nM

SMILES: CC(=O)N1CCc2nc(N3CCC(Oc4ccc(F)cc4F)CC3)c(-c3ccn(C(=O)OC(C)(C)C)c3)nc2C1 [Compound 53, tert-butyl 3-{6-acetyl-2-[4-(2,4-difluorophenoxy)piperidin-1-yl]-5H,6H,7H,8H-pyrido[3,4-b]pyrazin-3-yl}-1H-pyrrole-1-carboxylate]
- IC50 (GPR3; [1]): 100 to 1000 nM
- IC50 (GPR6; [1]): 1000 to 30000 nM

SMILES: Fc1ccc(OC2CCN(c3nc4ccncc4nc3-c3cnc[nH]3)CC2)c(F)c1 [Compound 54, 4-(2,4-difluorophenoxy)-1-[3-(1H-imidazol-5-yl)pyrido[3,4-b]pyrazin-2-yl]piperidine]
- IC50 (GPR3; [1]): 1000 to 30000 nM
- IC50 (GPR6; [1]): 1000 to 30000 nM

SMILES: CN(c1ccc(F)cc1F)C1CCN(c2nc3ccncc3nc2-c2cn[nH]c2)CC1 [Compound 55, 1-(3-(1H-pyrazol-4-yl)pyrido[3,4-b]pyrazin-2-yl)-N-(2,4-difluorophenyl)-N-methylpiperidin-4-amine]
- IC50 (GPR3; [1]): 1000 to 30000 nM
- IC50 (GPR6; [1]): 1000 to 30000 nM

SMILES: COc1ccnc(-c2nc3c(nc2N2CCC(Oc4ccc(F)cc4F)CC2)CCN(C(C)=O)C3)n1 [Compound 56, 1-{2-[4-(2,4-difluorophenoxy)piperidin-1-yl]-3-(4-methoxypyrimidin-2-yl)-5H,6H,7H,8H-pyrido[3,4-b]pyrazin-6-yl}ethan-1-one]
- IC50 (GPR3; CHO cells stably expressing GPR3, cAMP assay (Example 24)): 100 to 1000 nM
- IC50 (GPR6; CHO cells stably expressing GPR6, cAMP assay (Example 24)): 1000 to 30000 nM

— patent US20260042755A1, “GPR6 INVERSE AGONISTS” (MapLight Therapeutics, Inc., priority 2022, published 2026)
